Experimental data from patent US10689378B2, “Triazolopyridine compounds and uses thereof” (Novartis AG, priority 2016, dated 2020).
Read-outs that look alike come from different tables or passages of the source.

Legend:
[1] = molecular target: wild type PRC2 (wtPRC2) complex (Homo sapiens, UniProt O75530); assay: EED LC-MS assay (SAH production by PRC2); assay type: biochemical
Outline: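 Pentameric PRC2 (EZH2, SUZ12, EED, Rbap48, AEBP), 12 nM final, preincubated 20 min with compound and SAM, then 1.5 μM biotinylated H3K27me0 peptide, 1 μM SAM, pH 8.0, 120 min at rt. SAH quantified by LC-MS/MS with d4-SAH; control-normalized activity fitted for IC50.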

EED (1-441)-His protein = molecular target: T1, EED (1-441)-His protein (Homo sapiens, UniProt O75530); assay: EED-H3K27Me3 peptide competition binding assay by AlphaScreen
T1 construct: 30 nM EED (1-441)-His protein
T1 sequence (O75530 whole entry): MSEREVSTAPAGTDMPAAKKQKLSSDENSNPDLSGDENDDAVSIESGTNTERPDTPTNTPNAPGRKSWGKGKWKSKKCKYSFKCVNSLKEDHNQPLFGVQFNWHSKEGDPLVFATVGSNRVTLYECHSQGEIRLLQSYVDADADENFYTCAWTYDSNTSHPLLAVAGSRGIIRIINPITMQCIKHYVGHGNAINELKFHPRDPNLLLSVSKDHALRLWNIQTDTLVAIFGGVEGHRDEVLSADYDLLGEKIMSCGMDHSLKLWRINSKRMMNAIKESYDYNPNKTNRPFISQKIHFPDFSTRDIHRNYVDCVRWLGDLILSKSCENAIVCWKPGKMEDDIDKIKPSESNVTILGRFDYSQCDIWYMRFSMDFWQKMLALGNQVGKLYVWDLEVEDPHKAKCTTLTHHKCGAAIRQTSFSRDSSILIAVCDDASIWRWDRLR
Outline: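 Serially diluted compound (12 points, 3-fold) incubated 20 min with 30 nM EED(1-441)-His and 15 nM biotin-H3K27Me3(19-33) peptide in 25 mM HEPES pH 8, 0.02% Tween-20, 0.5% BSA. Ni-chelate acceptor/streptavidin donor beads (10 μg/mL each) added, 1 h rt dark; 615 nm emission normalized to controls, dose-response fit for IC50.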

[2] = test system: H3K27 methylation in G401 cell; assay: ELISA (H3K27 methylation) assay in G401 cells; assay type: cell-based, human; details: Homo sapiens
Outline: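 G401 cells treated 48 h with 3-fold dilutions (8 or 12 points, top 20 μM). Acid-extracted histones probed by ELISA for H3K27me3 or H3K27me2 with ECL readout, normalized to total H3. Percent inhibition versus DMSO fitted to dose-response curve for IC50.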

[3] = read-out: (b) IC50, EED LC-MS Qualified
[4] = read-out: (a) IC50, EED Alphascreen binding Qualified
[5] = G-401, read-out: (c) IC50, ELISA Qualified
[6] = PRC2 LC-MS assay, read-out: (b) IC50 EED LC-MS Qualified
[7] = EED-H3K27Me3 peptide competition, AlphaScreen, read-out: (a) IC50 EED Alphascreen binding Qualified
[8] = G-401, H3K27 methylation ELISA, read-out: (c) IC50 ELISA Qualified

Chain of wild type PRC2 (wtPRC2) complex (O75530 whole entry): as above
Chain of wild type PRC2 (wtPRC2) complex (Q15910 whole entry partner): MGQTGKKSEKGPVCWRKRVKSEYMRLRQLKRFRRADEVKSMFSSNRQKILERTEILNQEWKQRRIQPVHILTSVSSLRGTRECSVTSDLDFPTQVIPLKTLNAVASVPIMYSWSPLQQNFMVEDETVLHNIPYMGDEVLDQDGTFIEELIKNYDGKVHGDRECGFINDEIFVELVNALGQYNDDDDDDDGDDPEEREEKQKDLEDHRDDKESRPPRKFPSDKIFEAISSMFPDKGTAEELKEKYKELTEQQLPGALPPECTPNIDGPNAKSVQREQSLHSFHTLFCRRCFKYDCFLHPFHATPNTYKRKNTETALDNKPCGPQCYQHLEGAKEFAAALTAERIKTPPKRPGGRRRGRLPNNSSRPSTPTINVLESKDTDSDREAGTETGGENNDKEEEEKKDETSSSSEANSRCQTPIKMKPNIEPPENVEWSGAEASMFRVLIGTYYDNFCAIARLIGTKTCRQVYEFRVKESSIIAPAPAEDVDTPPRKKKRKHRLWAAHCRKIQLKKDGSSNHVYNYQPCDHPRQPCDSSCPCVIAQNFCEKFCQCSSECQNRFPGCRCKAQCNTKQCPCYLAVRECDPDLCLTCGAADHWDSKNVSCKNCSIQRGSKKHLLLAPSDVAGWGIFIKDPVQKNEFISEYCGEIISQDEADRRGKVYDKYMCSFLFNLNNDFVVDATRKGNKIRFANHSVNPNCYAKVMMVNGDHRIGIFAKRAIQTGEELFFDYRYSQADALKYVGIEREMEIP
Chain of wild type PRC2 (wtPRC2) complex (Q15022 whole entry partner): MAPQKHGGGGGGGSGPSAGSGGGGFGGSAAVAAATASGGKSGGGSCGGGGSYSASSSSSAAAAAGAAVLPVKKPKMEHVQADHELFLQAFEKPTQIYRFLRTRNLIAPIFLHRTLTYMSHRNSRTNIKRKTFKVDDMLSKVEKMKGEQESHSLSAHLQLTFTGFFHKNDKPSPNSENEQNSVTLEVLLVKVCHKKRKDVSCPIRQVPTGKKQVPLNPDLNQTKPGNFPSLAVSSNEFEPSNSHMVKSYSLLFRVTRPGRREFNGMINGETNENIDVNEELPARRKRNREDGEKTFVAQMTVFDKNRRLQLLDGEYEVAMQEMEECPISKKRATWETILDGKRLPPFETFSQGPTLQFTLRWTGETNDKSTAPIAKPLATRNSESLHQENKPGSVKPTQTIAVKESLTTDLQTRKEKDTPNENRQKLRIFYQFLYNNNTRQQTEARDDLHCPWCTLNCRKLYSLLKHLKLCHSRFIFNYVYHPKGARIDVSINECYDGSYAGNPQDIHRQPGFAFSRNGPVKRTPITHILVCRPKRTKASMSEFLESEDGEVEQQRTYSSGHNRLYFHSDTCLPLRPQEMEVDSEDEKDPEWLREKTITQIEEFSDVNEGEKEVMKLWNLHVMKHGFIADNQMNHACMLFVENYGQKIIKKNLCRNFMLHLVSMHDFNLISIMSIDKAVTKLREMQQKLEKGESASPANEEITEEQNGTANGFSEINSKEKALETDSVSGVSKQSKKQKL
Chain of wild type PRC2 (wtPRC2) complex (Q09028 whole entry partner): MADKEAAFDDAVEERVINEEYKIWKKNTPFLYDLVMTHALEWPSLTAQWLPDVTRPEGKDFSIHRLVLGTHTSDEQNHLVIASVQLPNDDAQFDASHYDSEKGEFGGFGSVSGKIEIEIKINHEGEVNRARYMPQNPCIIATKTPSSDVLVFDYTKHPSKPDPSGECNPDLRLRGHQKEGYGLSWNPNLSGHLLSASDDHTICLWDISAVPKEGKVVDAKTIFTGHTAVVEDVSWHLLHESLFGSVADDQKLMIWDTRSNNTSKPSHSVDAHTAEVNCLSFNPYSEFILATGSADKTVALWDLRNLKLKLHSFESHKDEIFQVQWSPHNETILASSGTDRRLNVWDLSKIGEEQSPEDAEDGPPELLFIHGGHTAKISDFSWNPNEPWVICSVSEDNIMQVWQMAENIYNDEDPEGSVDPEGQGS
Chain of wild type PRC2 (wtPRC2) complex (Q6ZN18 whole entry partner): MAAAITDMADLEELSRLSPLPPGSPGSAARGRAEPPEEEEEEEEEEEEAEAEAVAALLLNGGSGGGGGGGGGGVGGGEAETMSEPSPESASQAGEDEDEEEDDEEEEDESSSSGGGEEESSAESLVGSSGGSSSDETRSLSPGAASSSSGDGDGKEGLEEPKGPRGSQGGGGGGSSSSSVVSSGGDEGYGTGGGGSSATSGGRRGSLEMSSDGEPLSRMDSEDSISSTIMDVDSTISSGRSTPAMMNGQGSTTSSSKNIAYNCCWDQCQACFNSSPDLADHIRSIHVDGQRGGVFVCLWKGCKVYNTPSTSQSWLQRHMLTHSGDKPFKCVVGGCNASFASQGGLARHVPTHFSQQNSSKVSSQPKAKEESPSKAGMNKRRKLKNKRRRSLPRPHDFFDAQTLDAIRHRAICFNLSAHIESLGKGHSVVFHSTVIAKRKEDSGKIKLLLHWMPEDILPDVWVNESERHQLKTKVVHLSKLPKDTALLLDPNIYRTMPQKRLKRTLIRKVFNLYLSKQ

IC50 [1, 3]	IC50 (EED (1-441)-His protein; [4])	IC50 [2, 5]	IC50 [1, 6]	IC50 (EED (1-441)-His protein; [7])	IC50 [2, 8]	SMILES
102 nM	49 nM	41 nM	–	–	–	COc1cccc(F)c1CNc1ccc(-c2ccc(F)nc2)c2nncn12 [Example 159, N-(2-fluoro-6-methoxybenzyl)-8-(6-fluoropyridin-3-yl)-[1,2,4]triazolo[4,3-a] pyridin-5-amine]
77.5 nM	16.6 nM	14.3 nM	–	–	–	COc1cc(F)cc(F)c1CNc1ccc(-c2ccc(CN(C)C)cc2)c2nncn12 [Example 162, N-(2,4-difluoro-6-methoxybenzyl)-8-(4-((dimethylamino)methyl)phenyl)-[1,2,4]triazolo[4,3-a]pyridin-5-amine]
120 nM	33.2 nM	36 nM	–	–	–	COc1cccc(F)c1CNc1ccc(-c2ccc(C)nc2)c2nncn12 [Example 164, N-(2-fluoro-6-methoxybenzyl)-8-(6-methylpyridin-3-yl)-[1,2,4]triazolo[4,3-a]pyridin-5-amine]
38 nM	15.9 nM	14 nM	–	–	–	COc1cccc(F)c1CNc1ccc(-c2cncc(C)c2)c2nncn12 [Example 165, N-(2-fluoro-6-methoxybenzyl)-8-(5-methylpyridin-3-yl)-[1,2,4]triazolo[4,3-a]pyridin-5-amine]
20.4 nM	25.2 nM	33.3 nM	–	–	–	COc1cccc(F)c1CNc1ccc(-c2cccnc2F)c2nncn12 [Example 166, N-(2-fluoro-6-methoxybenzyl)-8-(2-fluoropyridin-3-yl)-[1,2,4]triazolo[4,3-a]pyridin-5-amine]
–	–	–	123 nM	36.3 nM	40.3 nM	COc1ccc(-c2ccc(NCc3c(F)cccc3OC)n3cnnc23)cn1 [Example 173, N-(2-fluoro-6-methoxybenzyl)-8-(6-methoxypyridin-3-yl)-[1,2,4]triazolo [4,3-a]pyridin-5-amine]
–	–	–	32.3 nM	15.8 nM	12.3 nM	COc1cccc(F)c1CNc1ccc(-c2ccc(S(C)(=O)=O)cc2F)c2nncn12 [Example 177, 8-(2-fluoro-4-(methylsulfonyl)phenyl)-N-(2-fluoro-6-methoxybenzyl)-[1,2,4]triazolo[4,3-a]pyridin-5-amine]
–	–	–	171 nM	55.7 nM	57.9 nM	COc1ccccc1CNc1ccc(-c2ccc(N3CCN(C)CC3C)nc2)c2nncn12 (stereo not drawn) [Example 180, 8-(6-(2,4-dimethylpiperazin-1-yl)pyridin-3-yl)-N-(2-methoxybenzyl)-[1,2,4] triazolo[4,3-a]pyridin-5-amine]
–	–	–	520 nM	20.4 nM	16.5 nM	CNC(=O)c1cncc(-c2ccc(NCc3c(F)cccc3OC)n3cnnc23)c1 [Example 182, 5-(5-((2-fluoro-6-methoxybenzyl)amino)-[1,2,4]triazolo[4,3-a]pyridin-8-yl)-N-methylnicotinamide]
–	–	–	41.6 nM	19.9 nM	17.3 nM	COc1cccc(F)c1CNc1ccc(-c2ccc(CCO)nc2)c2nncn12 [Example 183, 2-(5-(5-((2-fluoro-6-methoxybenzyl)amino)-[1,2,4]triazolo[4,3-a]pyridin-8-yl)pyridin-2-yl)ethanol]

The remaining lines, values behind:

SMILES	IC50 [1, 3]	IC50 (EED (1-441)-His protein; [4])	IC50 [2, 5]	IC50 [1, 6]	IC50 (EED (1-441)-His protein; [7])	IC50 [2, 8]
COc1cccc(F)c1CNc1ccc(-c2cnc(S(C)(=O)=O)c(C)c2)c2nncn12 [Example 160, N-(2-fluoro-6-methoxybenzyl)-8-(5-methyl-6-(methylsulfonyl)pyridin-3-yl)-[1,2,4]triazolo[4,3-a] pyridin-5-amine]	351 nM	15.7 nM	14.8 nM	–	–	–
COc1cccc(F)c1CNc1ccc(-c2cnc(C)nc2)c2nncn12 [Example 161, N-(2-fluoro-6-methoxybenzyl)-8-(2-methylpyrimidin-5-yl)-[1,2,4] triazolo[4,3-a]pyridin-5-amine]	90.1 nM	48.7 nM	26.1 nM	–	–	–
COc1cccc(F)c1CNc1ccc(-c2ccc(N(C)S(C)(=O)=O)nc2)c2nncn12 [Example 163, N-(5-(5-((2-fluoro-6-methoxybenzyl)amino)-[1,2,4]triazolo[4,3-a]pyridin-8-yl)pyridin-2-yl)-N-methylmethanesulfonamide]	50.5 nM	16.6 nM	10.7 nM	–	–	–
COc1cccc(F)c1CNc1ccc(-c2cncc(N3CCCC3=O)c2)c2nncn12 [Example 167, 1-(5-(5-((2-fluoro-6-methoxybenzyl)amino)-[1,2,4]triazolo[4,3-a]pyridin-8-yl)pyridin-3-yl)pyrrolidin-2-one]	679 nM	13.4 nM	10.3 nM	–	–	–
COc1ccccc1CNc1ccc(-c2ccc(N3CC(C)N(C)CC3C)nc2)c2nncn12 (stereo not drawn) [Example 168, N-(2-methoxybenzyl)-8-(6-(2,4,5-trimethylpiperazin-1-yl)pyridin-3-yl)-[1,2,4] triazolo[4,3-a]pyridin-5-amine]	168 nM	50.5 nM	105 nM	–	–	–
COc1cccc(F)c1CNc1ccc(-c2ccc(OCCS(C)(=O)=O)cc2)c2nncn12 [Example 169, N-(2-fluoro-6-methoxybenzyl)-8-(4-(2-(methylsulfonyl)ethoxy)phenyl)-[1,2,4]triazolo[4,3-a] pyridin-5-amine]	305 nM	84.5 nM	105 nM	–	–	–
COc1cccc(F)c1CNc1ccc(-c2c(C)nn(CCO)c2C)c2nncn12 [Example 170, 2-(4-(5-((2-fluoro-6-methoxybenzyl)amino)-[1,2,4]triazolo[4,3-a]pyridin-8-yl)-3,5-dimethyl-1H-pyrazol-1-yl)ethanol]	67.2 nM	25.8 nM	18.6 nM	–	–	–
COc1cccc(F)c1CNc1ccc(-c2ccc(N3CCOCC3)nc2)c2nncn12 [Example 172, N-(2-fluoro-6-methoxybenzyl)-8-(6-morpholinopyridin-3-yl)-[1,2,4]triazolo [4,3-a]pyridin-5-amine]	–	–	–	162 nM	56.4 nM	111 nM
COc1cccc(F)c1CNc1ccc(-c2ccc(N(C)C)nc2)c2nncn12 [Example 174, 8-(6-(dimethylamino)pyridin-3-yl)-N-(2-fluoro-6-methoxybenzyl)-[1,2,4]triazolo[4,3-a] pyridin-5-amine]	–	–	–	136 nM	47.2 nM	76.7 nM
COc1cccc(F)c1CNc1ccc(-c2ccnc(CCO)c2)c2nncn12 [Example 175, 2-(4-(5-((2-fluoro-6-methoxybenzyl)amino)-[1,2,4]triazolo[4,3-a]pyridin-8-yl)pyridin-2-yl)ethanol]	–	–	–	148 nM	35.9 nM	23.9 nM
COc1cccc(F)c1CNc1ccc(-c2cccnc2OC)c2nncn12 [Example 176, N-(2-fluoro-6-methoxybenzyl)-8-(2-methoxypyridin-3-yl)-[1,2,4]triazolo [4,3-a]pyridin-5-amine]	–	–	–	176 nM	32.9 nM	58.6 nM
COc1cccc(F)c1CNc1ccc(-c2ccc(C(=O)N(C)C)cc2F)c2nncn12 [Example 178, 3-fluoro-4-(5-((2-fluoro-6-methoxybenzyl)amino)-[1,2,4]triazolo[4,3-a]pyridin-8-yl)-N,N-dimethyl benzamide]	–	–	–	18.8 nM	6.5 nM	6.5 nM
COc1cccc(F)c1CNc1ccc(-c2ccc(S(=O)(=O)C3CCNCC3)nc2)c2nncn12 [Example 179, N-(2-fluoro-6-methoxybenzyl)-8-(6-(piperidin-4-ylsulfonyl)pyridin-3-yl)-[1,2,4]triazolo[4,3-a]pyridin-5-amine]	–	–	–	174 nM	24.8 nM	13.2 nM
COc1cccc(F)c1CNc1ccc(-c2cnccc2F)c2nncn12 [Example 181, N-(2-fluoro-6-methoxybenzyl)-8-(4-fluoropyridin-3-yl)-[1,2,4]triazolo[4,3-a] pyridin-5-amine]	–	–	–	44.2 nM	11.2 nM	11.4 nM
COc1cccc(F)c1CNc1ccc(-c2cnc(S(C)(=O)=O)cc2C)c2nncn12 [Example 184, N-(2-fluoro-6-methoxybenzyl)-8-(4-methyl-6-(methylsulfonyl)pyridin-3-yl)-[1,2,4]triazolo[4,3-a] pyridin-5-amine]	–	–	–	77.7 nM	46.4 nM	25 nM
COc1cccc(F)c1CNc1ccc(-c2ccc(S(C)(=O)=O)nc2C)c2nncn12 [Example 185, N-(2-fluoro-6-methoxybenzyl)-8-(2-methyl-6-(methylsulfonyl)pyridin-3-yl)-[1,2,4]triazolo[4,3-a] pyridin-5-amine]	–	–	–	18.5 nM	7.9 nM	3.6 nM
COc1cccc(F)c1CNc1ccc(-c2cn(C)nc2C)c2nncn12 [Example 186, 8-(1,3-dimethyl-1H-pyrazol-4-yl)-N-(2-fluoro-6-methoxybenzyl)-[1,2,4]triazolo[4,3-a] pyridin-5-amine]	–	–	–	14 nM	65.9 nM	40.9 nM
